Experimental data taken from patent US6248895A, “Benzofuroxan compound, method of preparation, pharmaceutical composition and method of treatment using the same” (Torrent Pharmaceuticals Ltd., priority 1998, dated 2001).

Assays:
[1] = tested on: thoracic aorta (albino rabbit, helical strips, endothelium removed); test: In vitro screening of NO donors: relaxation of endothelium-denuded rabbit thoracic aorta strips, before and after GTN-induced tolerance; format: cell-based; details: relative to GTN; for Mean Relative Potency After Tolerance: after tolerance induced by 440 μM GTN for 90 min
Method: a) In vitro Screening of NO Donors
The method adopted was a modified method of Nishikawa et al (1982). Albino rabbits of either sex were stunned and exsanguinated. Thoracic aorta was quickly removed and cut helically (at an angle of […]) into strips 4-5 mm wide and 25 to 30 mm long, after removal of adventitial connective tissue. The endothelium was rubbed off gently using a cotton swab soaked in Kreb's solution. Two strips were fixed vertically in organ baths containing 20 ml. Kreb's solution maintained at 37° C. and bubbled with oxygen. A resting tension of 4 g was applied and the preparation was allowed to equilibrate for 30 min. Each preparation was exposed to two primer doses of KCl (30 mM). After the contraction reached a maximum, the bath was drained off and replaced with fresh Kreb's solution. Half an hour later, cumulative dose response curve for the test compound was taken on one tissue (test) and for glyceryl trinitrate (GTN) in the other (standard). The dose range used was from 10^-9 M to 10^-3 M with a contact period of 4 min. for each dose.
Tolerance was induced in both the tissues by adding 440 μM of GTN for 90 minutes. During this period the bath solution was changed every 30 min. and 440 μM of GTN was replaced. Later both the tissues were washed thoroughly and the dose response curve (DRC) for both the test and the standard were repeated. The percentage relaxation with individual doses was calculated by taking the maximum relaxations to 10^-4 M papaverine as 100% relaxation. A graph was plotted by taking the percentage relaxation vs the log (M) concentration of the compounds.

[2] = tested on: vasopressin induced T-wave elevation; test: Anti-anginal effect: suppression of vasopressin induced T-wave elevation in anesthetized guinea pigs; format: in vivo, guinea pig; details: for Selectivity Index A/B (C): ED20 for fall in B.P. (A) / ED50 for T-wave inhibition (B); for Dose required for 50% inhibition of T-wave (ED50) (B): i.v.
Source text: b) In vivo Pharmacological Screening
A modified method of Benedini et al (1995) was adopted for studying the anti-anginal effect of the chosen compounds. Guinea pigs of either sex, weighing approximately 400-600 g were used for this study. Animals were anesthetized with urethane (1.25 g/kg, i.p.) and jugular vein was cannulated for intravenous administration of drugs/vehicle. Mean arterial blood pressure (MABP) was monitored by a cannula inserted into the right carotid artery and connected to a pressure transducer. Standard limb lead II electrocardiogram was recorded continuously. All the recordings were carried out on a MacLab system (AD Instruments, UK).
The ability of the test compounds to suppress the vasopressin induced T-wave elevation was used as the model for studying the anti-anginal effects of the compounds. Guinea pigs were divided into two groups for the purpose of this study, i) control group (pretreated with the vehicle for the compound) and ii) drug treated group.
In this group of animals the solvent used for dissolving the test compound was administered intravenously in a volume of 1 ml/kg. The basal T-wave heights, heart rates and MABP and changes after vehicle administration were noted. Thirty seconds later 1 I.U./ml/kg of vasopressin was administered intravenously. The T-wave heights, heart rates and MABP and their changes after vasopressin administration were also noted. The T-wave elevation (after vasopressin administration), maximum rise in MABP, and changes in heart rate were calculated from the above data and expressed as mean±standard deviation.
The effects of the test compound in suppressing the T-wave elevation caused by vasopressin were evaluated with atleast three dose levels. Groups of 6 guinea pigs were used for each dose. The test compound was injected 30 seconds prior to vasopressin administration. Changes in MABP, heart rate and T-waves were recorded as described for the control group. The percentage inhibition of vasopressin induced T-wave elevation was calculated for each dose taking the T-wave height estimated in control group as 100%. From the dose vs percent inhibition relationship, the dose required for 50% inhibition (ED50) for the T-wave elevation was estimated.
In a separate group of animals the drop in MABP after administration of the test compound (dose range of 0.1-1000 μg/kg, i.v.) was studied. Atleast three animals were used for each dose. Care was taken so that the doses were given only after the MABP had stabilized from the effects of the previous dose. All doses were injected in a final volume of 1 ml/kg. […] From this graph the dose required to produce a 20% fall in MABP (ED20) was calculated. The specificity of the test compound was defined by the selectivity index, which was shown below: [formula]

MABP = test: Drop in mean arterial blood pressure (MABP) after i.v. administration; format: in vivo, guinea pig; details: 20% fall in MABP
Method: Guinea pigs of either sex, weighing approximately 400-600 g were used for this study. […] Standard limb lead II electrocardiogram was recorded continuously. All the recordings were carried out on a MacLab system (AD Instruments, UK).
Determination of the Ed20 Values for Drop in Mabp
Atleast three animals were used for each dose. […] All doses were injected in a final volume of 1 ml/kg. […] The specificity of the test compound was defined by the selectivity index, which was shown below: [formula]

[3] = conventional nitrates like GTN; cited from earlier work
[4] = 30 seconds prior to vasopressin 1 I.U./ml/kg

What does the source list for “5(6)-(2-nicotinamide ethyloxycarbonyl) benzofuroxan hydrochloride [Compound 1]”?
Mean Relative Potency After Tolerance [1]: 8.4; Mean Relative Potency Before Tolerance [1]: 0.2; Selectivity Index A/B (C) [2]: 0.517; selectivity index as compared to GTN (in words) [2]: high selectivity index as compared to GTN; Dose required for 50% inhibition of T-wave (ED50) (B) [2, 4]: 0.88642 mg/kg; Dose needed for 20% fall in B.P. (ED20) (A) (MABP): 0.45802 mg/kg

Which results are given for `CC1(C)OCC(COC(=O)c2ccc3c(c2)no[n+]3[O-])O1` (racemic) [Compound 10, 5(6)-((±)-2,2-dimethyl-1,3-dioxolane-4-methyloxycarbonyl) benzofuroxan]?
Mean Relative Potency After Tolerance [1]: 10.13; Mean Relative Potency Before Tolerance [1]: 0.39; Selectivity Index A/B (C) [2]: 0.58; selectivity index as compared to GTN (in words) [2]: high selectivity index as compared to GTN; Dose required for 50% inhibition of T-wave (ED50) (B) [2, 4]: 0.492 mg/kg; Dose needed for 20% fall in B.P. (ED20) (A) (MABP): 0.286 mg/kg

For `O=C(NCCOC(=O)c1ccc2c(c1)no[n+]2[O-])c1ccncc1` [Compound 2, 5(6)-(2-isonicotinamideethyloxycarbonyl)benzofuroxan], which “Mean Relative Potency After Tolerance” value [1] is on record?
Its value is 6.94.

And the “Mean Relative Potency Before Tolerance” value [1]?
Its value is 0.06.

For `O=C(OCCN1CCCC1=O)c1ccc2c(c1)no[n+]2[O-]` [Compound 3, 5(6)-(2-pyrolidinone ethyloxycarbonyl) benzofuroxan], which “Mean Relative Potency After Tolerance” value [1] is on record?
Its value is 25.

What about the “Mean Relative Potency Before Tolerance” value [1] of the same compound?
The value was 0.11.

What about the “Selectivity Index A/B (C)” value [2] of the same compound?
Its value is 0.152.

What about the “Dose required for 50% inhibition of T-wave (ED50) (B)” value [2, 4] of the same compound?
The value was 0.67561 mg/kg.

What about the “Dose needed for 20% fall in B.P. (ED20) (A)” value (MABP) of the same compound?
Its value is 0.13952 mg/kg.

What does the source list for `CC(O)COC(=O)c1ccc2c(c1)no[n+]2[O-]` (stereo not drawn) [Compound 4, 5(6)-(2-hydroxypropyloxycarbonyl) benzofuroxan]?
Mean Relative Potency After Tolerance [1]: 11.22; Mean Relative Potency Before Tolerance [1]: 0.28

Which “Mean Relative Potency After Tolerance” value [1] does the source give for `O=C(OCCN1CCOCC1)c1ccc2c(c1)no[n+]2[O-]` [Compound 5, 5(6)-(2-morpholinoethyloxycarbonyl)benzofuroxan] here?
Its value is 4.12.

And the “Mean Relative Potency Before Tolerance” value [1]?
Its value is 0.18.

What does the source list for `COCCOC(=O)c1ccc2c(c1)no[n+]2[O-]` [Compound 6, 5(6)-(2-methyloxyethyloxycarbonyl) benzofuroxan]?
Mean Relative Potency After Tolerance [1]: 17.02; Mean Relative Potency Before Tolerance [1]: 0.97; Selectivity Index A/B (C) [2]: 0.67; selectivity index as compared to GTN (in words) [2]: high selectivity index as compared to GTN; Dose required for 50% inhibition of T-wave (ED50) (B) [2, 4]: 0.3379 mg/kg; Dose needed for 20% fall in B.P. (ED20) (A) (MABP): 0.22634 mg/kg

Which “Mean Relative Potency After Tolerance” value [1] does the source give for `O=C(OCC(O)CO)c1ccc2c(c1)no[n+]2[O-]` (stereo not drawn) [Compound 7, 5(6)-(2,3-dihydroxypropyloxycarbonyl) benzofuroxan] here?
The value was 3.49.

What about the “Mean Relative Potency Before Tolerance” value [1] of the same compound?
Its value is 0.17.

Which results are given for `CCOCCOC(=O)c1ccc2c(c1)no[n+]2[O-]` [Compound 8, 5(6)-(2-ethoxyethyloxycarbonyl) benzofuroxan]?
Mean Relative Potency After Tolerance [1]: 11.9; Mean Relative Potency Before Tolerance [1]: 0.2

With `O=C(OCc1cccnc1)c1ccc2c(c1)no[n+]2[O-]` [Compound 9, 5(6)-(3-pyridinemethoxycarbonyl) benzofuroxan] as the compound, how does the “Mean Relative Potency After Tolerance” value [1] read?
Its value is 8.05.

And the “Mean Relative Potency Before Tolerance” value [1]?
Its value is 0.53.

And the “Selectivity Index A/B (C)” value [2]?
The value was 0.61.

What about the “selectivity index as compared to GTN (in words)” value [2] of the same compound?
Its value is “high selectivity index as compared to GTN”.

What about the “Dose required for 50% inhibition of T-wave (ED50) (B)” value [2, 4] of the same compound?
The value was 0.37285 mg/kg.

What about the “Dose needed for 20% fall in B.P. (ED20) (A)” value (MABP) of the same compound?
Its value is 0.22716 mg/kg.

With `O=C(OC1COC2C(O[N+](=O)[O-])COC12)c1ccc2c(c1)no[n+]2[O-]` (stereo not drawn) [Compound 11, 5(6)-(isosorbide mononitrateoxy carbonyl) benzofuroxan] as the compound, how does the “Mean Relative Potency After Tolerance” value [1] read?
The value was 7.

And the “Mean Relative Potency Before Tolerance” value [1]?
The value was 0.25.

Which results are given for `O=[N+]([O-])OCC(CO[N+](=O)[O-])O[N+](=O)[O-]` [GTN, glyceryl trinitrate, reference compound]?
ED50 ([2]; Cavia porcellus, iv, 30 seconds prior to vasopressin 1 I.U./ml/kg, read-out: Dose required for 50% inhibition of T-wave (ED50) (B)): 0.474 mg/kg; Selectivity Index A/B (C) [2]: ~0.017; ED20 (MABP; Cavia porcellus, iv, read-out: Dose needed for 20% fall in B.P. (ED20) (A)): 0.00822 mg/kg; side effects as a manifestation of hypotensive effect [3]: tachycardia, retrosternal discomfort, palpitations, collapse, syncope and postural hypotension
